Measured values: ChEMBL document CHEMBL3885861, “Open TG-GATES”
Where a name gives a salt, the structure may show the parent alone.

Organism: Rattus norvegicus
Assay: Open TG-GATES - Regimen: Single
Assay type: toxicity, organism-based, Sprague-Dawley
Set-up: regimen Single, gender Male, age 6 weeks
Details: in vivo, ip, 240 mg/kg, route intraperitoneal injection, dose level Middle; for APTT / Bas / Eos / Fbg / Hb / Ht / Lym / MCH / MCHC / MCV / Mono / Neu / PT / Plat / RBC / Ret / WBC: tissue Blood; for KIDNEY_L / KIDNEY_R / KIDNEY_TOTAL: tissue Kidney; for LIVER: tissue Liver; for A/G / ALP / ALT / AST / BUN / CRE / Ca / Cl / DBIL / GLC / IP / K / LDH / Na / PL / RALB / TBIL / TC / TG / TP / gamma-GTP: tissue Plasma

CCOC(=O)/C=C\C(=O)OCC [DIETHYL MALEATE]
TERMINAL_BW (3 h): 196.7 g | APTT (3 h): 16 s | Bas (3 h): 0% | Eos (3 h): 1% | Fbg (3 h): 206.2 mg/dL | Hb (3 h): 13.4 g/dL | Ht (3 h): 40.3% | Lym (3 h): 72% | MCH (3 h): 21.3 pg | MCHC (3 h): 33.3% | MCV (3 h): 63.8 fL | Mono (3 h): 5.6% | Neu (3 h): 21.6% | PT (3 h): 12.4 s | Plat (3 h): 124.8 x10_4/uL | RBC (3 h): 631.8 x10_4/ul | Ret (3 h): 9.7% | WBC (3 h): 90.3 x10_2/uL | KIDNEY_L (3 h): 0.9 g | KIDNEY_R (3 h): 0.9 g | KIDNEY_TOTAL (3 h): 1.8 g | LIVER (3 h): 8.5 g | A/G (3 h): 2.1 | ALP (3 h): 700.6 IU/L | ALT (3 h): 35.8 IU/L | AST (3 h): 80.6 IU/L | BUN (3 h): 17 mg/dL | CRE (3 h): 0.5 mg/dL | Ca (3 h): 10.9 mg/dL | Cl (3 h): 105.4 meq/L | DBIL (3 h): 0.02 mg/dL | GLC (3 h): 191.8 mg/dL | IP (3 h): 10.9 mg/dL | K (3 h): 5.2 meq/L | LDH (3 h): 147 IU/L | Na (3 h): 138.4 meq/L | PL (3 h): 126 mg/dL | RALB (3 h): 3.6 g/dL | TBIL (3 h): 0.4 mg/dL | TC (3 h): 71.8 mg/dL | TG (3 h): 30.4 mg/dL | TP (3 h): 5.3 g/dL | gamma-GTP (3 h): 1.2 IU/L | TERMINAL_BW (6 h): 199.7 g | APTT (6 h): 16.1 s | Bas (6 h): 0% | Eos (6 h): 0.8% | Fbg (6 h): 210.2 mg/dL | Hb (6 h): 13 g/dL | Ht (6 h): 38.9% | Lym (6 h): 71.2% | MCH (6 h): 22 pg | MCHC (6 h): 33.3% | MCV (6 h): 66 fL | Mono (6 h): 6.8% | Neu (6 h): 21.4% | PT (6 h): 12.2 s | Plat (6 h): 121.8 x10_4/uL | RBC (6 h): 589.4 x10_4/ul | Ret (6 h): 10.6% | WBC (6 h): 107.7 x10_2/uL | KIDNEY_L (6 h): 0.9 g | KIDNEY_R (6 h): 0.9 g | KIDNEY_TOTAL (6 h): 1.9 g | LIVER (6 h): 8.6 g | A/G (6 h): 1.9 | ALP (6 h): 729.6 IU/L | ALT (6 h): 35 IU/L | AST (6 h): 69.8 IU/L | BUN (6 h): 14.8 mg/dL | CRE (6 h): 0.5 mg/dL | Ca (6 h): 10.7 mg/dL | Cl (6 h): 106.6 meq/L | DBIL (6 h): 0.004 mg/dL | GLC (6 h): 192.6 mg/dL | IP (6 h): 9.8 mg/dL | K (6 h): 5 meq/L | LDH (6 h): 112.8 IU/L | Na (6 h): 139.2 meq/L | PL (6 h): 131 mg/dL | RALB (6 h): 3.5 g/dL | TBIL (6 h): 0.4 mg/dL | TC (6 h): 82.8 mg/dL | TG (6 h): 39.6 mg/dL | TP (6 h): 5.3 g/dL | gamma-GTP (6 h): 1.4 IU/L
